Assay results taken from patent US7544667B2, “Hypocholesterolemic compounds” (Lipideon Biotechnology AG, priority 2003, dated 2009).

system: rabbit brush border membrane vesicles (BBMV); test: inhibition of cholesterol uptake in rabbit brush border membrane vesicles (BBMV); format: biochemical; conditions: applied in donor SUV (9 mol %); scavenger receptor-mediated uptake of radiolabelled cholesterol ester from donor particles into BBMV bilayer
Description: The compounds of the invention and ezetimibe (commercially obtained or prepared according to Wu, G. Z. et al., J. Org. Chem. 1999) together with the glucuronide (the metabolite of ezetimibe, prepared according to Vaccaro, W. D.; Davis, H. R. Bioorg. Med. Chem. Lett. 1998, 8, 313-318) as appropriate reference compounds were evaluated by well-established methods to determine their inhibition of cholesterol uptake in rabbit brush border membrane vesicles (BBMV) (Table 1). Briefly, the scavenger receptor-mediated uptake of radiolabelled cholesterol ester from the loaded donor particles into the BBMV bilayer was measured in the presence of various compounds of the invention and appropriate reference compounds (Hauser, H. et al., Biochemistry 1998, 37, 17843-17850; Werder, M. et al., Biochemistry 2001, 40, 11643-11650; Boffelli, D. et al., FEBS Lett. 1997, 411, 7-11.)

| Structure (SMILES) | Inhibition in (%) |
| --- | --- |
| O=C1[C@H](CC[C@H](O)c2ccc(F)cc2)[C@@H](c2ccc(O)cc2)N1c1ccc(F)cc1 [Ezetimibe, reference compound] | 16 ± 4 |
| O=C(O)[C@H]1O[C@@H](Oc2ccc([C@@H]3[C@@H](CC[C@H](O)c4ccc(F)cc4)C(=O)N3c3ccc(F)cc3)cc2)[C@H](O)[C@@H](O)[C@@H]1O [Glucuronide, reference compound] | 19 ± 4 |
| COC1OC(CS(=O)(=O)Oc2ccc([C@@H]3[C@@H](CC[C@H](O)c4ccc(F)cc4)CN3c3ccc(F)cc3)cc2)C(O)C(O)C1O (some centres unmarked) [IX] | 27 ± 4 |
| COC1OC(CS(=O)(=O)Oc2ccc([C@@H]3[C@@H](CC[C@H](O)c4ccc(F)cc4)C(=O)N3c3ccc(F)cc3)cc2)C(O)C(O)C1O (some centres unmarked) [IXb] | 20 ± 5 |
| O=C1[C@H](CC[C@H](O)c2ccc(F)cc2)[C@@H](c2ccc(OCC3OC(CO)C(O)C(O)C3O)cc2)N1c1ccc(F)cc1 (some centres unmarked) [VIII] | 15 ± 3 |
| CS(=O)(=O)Oc1ccc([C@@H]2[C@@H](CC[C@H](O)c3ccc(F)cc3)CN2c2ccc(F)cc2)cc1 [VII] | 22 ± 2 |
| CS(=O)(=O)Oc1ccc([C@@H]2[C@@H](CC[C@H](O)c3ccc(F)cc3)C(=O)N2c2ccc(F)cc2)cc1 [VI] | 30 ± 4 |
| O=C1[C@H](CC[C@H](O)c2ccc(F)cc2)[C@@H](c2ccc(OS(=O)(=O)c3ccccc3)cc2)N1c1ccc(F)cc1 [XIV] | 26 ± 3 |
| O=C1[C@H](CC[C@H](O)c2ccc(F)cc2)[C@@H](c2ccc(OS(=O)(=O)CC3OC(CO)C(OC4OC(CO)C(O)C(O)C4O)C(O)C3O)cc2)N1c1ccc(F)cc1 (some centres unmarked) [XVIII] | 41 ± 4 |
| O=C1[C@H](CC[C@H](O)c2ccc(F)cc2)[C@@H](c2ccc(OCC3OC(CO)C(OC4OC(CO)C(O)C(O)C4O)C(O)C3O)cc2)N1c1ccc(F)cc1 (some centres unmarked) [XVII] | 28 ± 4 |
| O=C(O)c1cc(S(=O)(=O)Oc2ccc([C@@H]3[C@@H](CC[C@H](O)c4ccc(F)cc4)C(=O)N3c3ccc(F)cc3)cc2)ccc1O [XVI] | 21 ± 5 |
| O=S(=O)(Oc1ccc([C@@H]2[C@@H](CC[C@H](O)c3ccc(F)cc3)CN2c2ccc(F)cc2)cc1)c1ccccc1 [XV] | 19 ± 3 |
| O=C1O[C@H](CC[C@H](O)c2ccc(F)cc2)[C@@H](c2ccc(O)cc2)N1c1ccc(F)cc1 [XXI] | 19 ± 2 |
| O=C1[C@H](CC[C@H](O)c2ccc(F)cc2)[C@@H](c2ccc(OS(=O)(=O)CC3OC(CO)C(O)C(O)C3O)cc2)N1c1ccc(F)cc1 (some centres unmarked) [X] | 15 ± 3 |
